Test results: patent US5298652A, “N-substituted glycines, inhibitors of phospholipase A2” (Hoffmann-La Roche Inc., priority 1992, dated 1994)

Tests used:
[1] = molecular target: T1, HSF-PLA2 (extracellular PLA2 obtained from human synovial fluid) (Homo sapiens, UniProt P14555); test: Assay for inhibition of HSF-PLA2 in vitro; format: biochemical; settings: read-out: % Inhib of HSF-PLA2
T1 construct: extracellular enzyme obtained from human synovial fluid; from tissue; host or cells: human synovial fluid (pooled)
T1 sequence (P14555 21-144): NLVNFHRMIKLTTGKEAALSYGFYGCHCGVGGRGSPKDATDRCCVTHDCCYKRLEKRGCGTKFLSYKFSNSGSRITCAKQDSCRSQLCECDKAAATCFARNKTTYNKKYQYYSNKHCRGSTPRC
Method: Assay for Inhibition of HSF-PLA2 In Vitro
The PLA2 used in this test is the extracellular enzyme obtained from human synovial fluid (HSF-PLA2).
The assay for HSF-PLA2 activity was a modification of the described method [Franson R., Dobrow R., Weiss, J., Elsbach P., and Weglick W. B., J. Lipid Res., 19, 18-23 (1978)] which was conducted using [1-^14 C]-oleate-labelled E. coli substrate in excess at a final concentration of 20,000 dpm/ml. This was equivalent to 18.2 mM of cell membrane phospholipid phosphorus and 2×10^9 autoclaved E. coli/ml. The optimal conditions which were developed for the assay of HSF-PLA2 inhibitors are summarized as follows. A total volume of 0.5 ml of reaction mixture typically had the following final composition: substrate (20,000 dpm/ml); enzyme (0.1% HSF, v/v); 2 mM CaCl2; 150 mM Na^+; 50 mM sodium HEPES buffer, pH 7.3; and 1% dimethyl sulfoxide (DMSO, used to solubilize test inhibitors) in the presence or absence of inhibitor. The reaction was initiated by the addition of HSF-PLA2 and duplicate samples of the mixture were incubated in 13×100 mm glass tubes with shaking for 30 minutes at 37° C. The reaction was terminated by the addition of 2.5 ml of chloroform-methanol (1 to 1.5, v/v). The extraction of lipids from the stopped reaction mixture was conducted by the further additions of 0.5 ml of chloroform and 1 ml of water with mixing. After centrifuging, the lower chloroform phase was transferred to smaller glass tubes and the solvent was evaporated to dryness with a nitrogen stream. The extracted lipid residue was redissolved in […] of a solution containing carrier oleic acid (0.2 mg/ml) in chloroform-methanol [9 to 1, v/v]). The whole lipid extract was applied to a preactivated (30 minutes at 110° C.) silica gel-impregnated glass fiber thin layer chromatography sheet (ITLC type SG sheet from Gelman Sciences Inc., Ann Arbor, Mich.) using hexane-acetic acid (100 to 1, v/v) as the developing solvent. This TLC system rapidly (6 minutes) resolved the enzymatically released product, ^14 C-oleic acid, from the unreacted ^14 C-phospholipid substrate. The unsaturated lipids were located on the chromatogram by a brief exposure to iodine vapor. The oleic acid zone (Rf value 0.95) and phospholipid zone (origin) were cut out, chopped into small pieces, shaken with 2 ml of ethanol-water (80 to 20, v/v) and 15 ml of Aquasol and counted for radio-activity. A control incubation of substrate in the absence of HSF-PLA2 was performed in each experiment. The PLA2 activity of the human synovial fluid was corrected for this small control value. […] The specific activity of PLA2 in the pooled human synovial fluid under the optimal assay conditions was 49.2 nmoles [1-^14 C]-oleic aid released hour^-1 mg^-1. The IC50 (μM concentration of test compound that produces 50% inhibition of PLA2 activity) was determined for each test compound.

[2] = system: croton oil-induced mouse ear edema; test: Croton oil mouse ear edema test; format: in vivo, male CD-1 mice; settings: 1 mg topical, coapplied with croton oil; ear punch weight at 6 hours
Method: Croton Oil Mouse Ear Edema Test
The croton oil-induced mouse ear edema test, a model of irritant-induced contact dermatitis, has been used for evaluation of the PLA2 inhibitors by the topical route of administration. This test was carried out as described in the following references: […]
Twenty five μl of a 1% croton oil solution [dissolved in a mixture of pyridine/water/diethyl ether at a ratio of 5/20/75 (croton oil vehicle)] are applied to the outer side of the right ear of 3-4 week old male CD-1 mice (8 animals per group). The test compounds are dissolved directly in the 1% croton oil solution at various concentrations and coapplied. Control animals receive 25 μl of croton oil vehicle on the right ear. Biopsy punches are removed at 6 hours from the right ear of the animals using a 6 mm skin trephine (Roboz, Washington, D.C.) and the wet weight of the ear punches is determined. The weight of the biopsy punches is a measure of ear inflammation, primarily edema. The data are expressed as percent inhibition relative to control groups.
Statistical analysis of the mean edema values of the control versus the treated groups is performed using Student's t-test. The significance of changes from mean value for vehicle-treated animals is as follows (*p<0.05, **p<0.01, ***p<0.005, ns/not significant).

[3] = system: carrageenan-induced paw edema; test: Rat carrageenan paw edema; format: in vivo, Lewis rats; settings: 30 mg/kg ip, 1 hr prior to carrageenan
Method: Rat Carrageenan Paw Edema
Representative compounds of the invention were tested in rat carrageenan-induced paw edema to determine their ability to inhibit this acute inflammatory response. Test compounds were administered intraperitoneally or orally to groups of seven Lewis rats (~200 gm) 1 hr prior to carrageenan administration. The test compounds were dissolved in dimethyl sulfoxide for intraperitoneal administration and dissolved or suspended in Labrafil […] for oral administration. At 0 hour, 0.1 mL of 1% carrageenan dissolved in pyrogen free […] was injected subplanetary into the right hind paw to elicit the inflammatory response. The volume (in mL) of the right hind paw was measured by immersion of the paw to the level of the lateral malleolus in an aqueous plethysmometer immediately prior to the injection of carrageenan and then at 1, 2 and 4 hr after carrageenan injection. The paw edema was calculated by subtracting the zero time reading from the readings taken after injection. The percent change of the edema volume from the vehicle treated control was calculated to determine the activity of the test compound. Statistical analysis of the mean paw edema values of the control versus the treated groups was performed using Student's t-test.

[4] = system: acetic acid-induced colitis (colonic mucosa myeloperoxidase); test: Acetic acid-induced colitis in rats; format: in vivo, male rats (Sprague-Dawley); settings: 10 mg/kg po
From the text: Acetic Acid-Induced Colitis in Rats
The rat acetic acid-induced colitis bioassay has been described by J. E. Krawisz, et al. in Amer. J. Proc. Gastro. Col. Rec. Surg. 31, 11-18 (1980), and by P. Sharon and W. F. Stenson in Gastroenterology 88, 55-63 (1985) and 86, 453-460 (1984). Acetic acid-induced colitis is characterized by the movement of inflammatory cells into the colon, with the number of such cells in the mucosa being measured by the activity of myeloperoxidase, a marker enzyme for these cells. Positive desirable activity is indicated by a reduction in the high levels of myeloperoxidase caused by acetic acid. Male rats (Sprague-Dawley), weighing 150 to 300 g, were pretreated twice daily for two days with either the vehicle (water or dimethylsulfoxide) or the test inhibitor compound suspended in water or dissolved in dimethylsulfoxide and orally administered. […] The colonic mucosa was surgically removed and homogenized in an aqueous buffer at pH 6 with a Tissumizer or similar device and myeloperoxidase was measured in the homogenate using o-phenyl enediamine as a chromagen, as described by A. Voller, D. E. Bidwell and A. Bartlett in "The Enzyme Linked Immunosorbent Assay (ELISA)", Zoological Soc., London, 1979, pages 29-30. […]

[5] = system: adjuvant arthritis induced by Freunds complete adjuvant; settings: dose 10 mg/kp ip
Method: Representative compounds of the invention were tested in the standard adjuvant arthritis model in rats, induced by Freunds complete adjuvant, as described by C.

SMILES | inhibition at 5.8 µM ([1]; 5.8 μM test compound) | % Inhib of Croton Oil Mouse Ear Edema (1 mg) [2] | % Inhib of Carrageenan Paw Edema 2 hr 30 mg/kg ip [3] | % Inhib of Myeloperoxidase Accumulation [4] | Change in Paw Volume in ml, Treated [5] | inhibition at 1 µM ([1]; 1 μM test compound)
CCCCCCCCCCCCCCCCCCOc1cccc(C(=O)N(CC(=O)O)CC(=O)O)c1 [Example 4, N-(Carboxymethyl)-N-[3-(octadecyloxy)benzoyl]glycine] | 50% | 17% | 50% | 112 ± 53% | -0.14 ± 0.06 mL | –
CCCCCCCCCCCCCCCCCCOc1ccc(C(=O)C(=O)N(CC(=O)O)CC(=O)O)cc1 [Example 65, N-(Carboxymethyl)-N-[2-[4-(octadecyloxy)phenyl]-1,2-dioxoethyl]glycine] | – | 44% | 71% | – | -0.07 ± 0.08 mL | 74%
